Measurements: PMC9315884, “New Membrane Active Antibacterial and Antiviral Amphiphiles Derived from Heterocyclic Backbone of Pyridinium-4-Aldoxime” (Pharmaceuticals, 2022)
“And” between values parts separate entries of the source, which are not always exact repeats. Identical values can stand only once. Counter-ions that a name gives are not always drawn. Like-named read-outs stand apart in the source and are kept apart here.

Columns and labels:
[1] = test system: Tobacco mosaic virus (TMV); test: Antiphytoviral activity assay (local lesions on host plant leaves); assay type: in vivo, Tobacco mosaic virus on Datura stramonium; details: Datura stramonium leaves, compound 100 µg/mL inoculated simultaneously with TMV; for Percentage of inhibition of local lesions: vs control plants
Protocol: Leaves of Nicotiana tabacum L. cv. Samsun plants systemically infected with Tobacco mosaic virus (TMV) were ground in 0.06 mol/L phosphate buffer, pH 7.0 (1:1, w/v) to prepare virus inocula. […] Leaves of the local host Datura stramonium L. were dusted with silicon carbide (Sigma-Aldrich, St. Louis, MO, USA) before virus inoculation, and the inoculum was diluted with inoculation buffer to obtain 5–20 lesions per inoculated leaf. Experiments were performed when the experimental plants reached the 4–6 leaf stage.
The tested QAS (10 mg/mL) were dissolved in 4% DMSO and added to the virus inocula at a final concentration of 100 µg/mL. DMSO was added to the control virus inocula at the same concentration. The control and treated plants were then rubbed with the prepared inocula and the antiviral activity of the tested compounds was evaluated by the percentage inhibition of the number of local lesions on the leaves of the treated and control plants as described in [40]. The obtained data were analyzed in Excel (Microsoft Office) and significant differences were determined by t-test.

[2] = test system: methicillin-resistant Staphylococcus aureus clinical strain MRSA; test: Broth microdilution assay (MIC); assay type: cell-based
Protocol: (§1) The antibacterial activity of all compounds was evaluated by determining the minimum inhibitory concentration (MIC), which is defined as the lowest concentration of the compound at which no visible bacterial growth is detected. The compounds were tested against representatives of Gram-positive and Gram-negative strains, including the ESKAPE bacterium Staphylococcus aureus ATCC25923 and the clinical isolate of methicillin-resistant S. aureus (MRSA), which are known for their pathogenicity.
(§2) The collection included five Gram-positive strains, including Staphylococcus aureus (ATCC 25923 and a methicillin-resistant Staphylococcus aureus clinical strain MRSA), Bacillus cereus ATCC 14579, Enterococcus faecalis ATCC 29212, and Listeria monocytogenes ATCC 7644; and three Gram-negative strains: Escherichia coli ATCC 25922, Pseudomonas aeruginosa ATCC 27853 and the food isolate Salmonella enterica. All microbial strains were maintained at ™80 °C for long-term storage and subcultured on Mueller-Hinton (MH) agar (Biolife, Italy) prior to broth microdilution experiments. The MH plates were stored at +4 °C for no longer than one month.
(§3) Antibacterial activity was evaluated using the Broth Microdilution Assay according to the Clinical and Laboratory Standard Institute’s Methods for Dilution Antimicrobial Susceptibility Test for Bacteria That Grow Aerobically; Approved Standard-Tenth Edition.
(§4) The stock solution of QAS (10 mg/mL) was prepared in 4% DMSO. Then, 100 µL of the tested QAS was added to the first well of the microtiter plate. Twofold serial dilutions in Muller-Hinton broth were performed over the entire plate at a concentration range of 5 mg/mL to 5 µg/mL. To each well, 50 µL of mid-exponentially grown inoculum containing 10^5 CFU/mL in Mueller-Hinton broth was added and incubated at 37 °C for 18 hours. The minimum inhibitory concentration (MIC) was determined as the lowest concentration at which no visually detectable bacterial growth occurred in the wells.

[3] = test system: Salmonella enterica food isolate; test: Broth microdilution assay (MIC); assay type: cell-based; details: S. enterica food isolate
Protocol: as §1, §2, §3, §4

[4] = test system: Pseudomonas aeruginosa ATCC27853; test: Broth microdilution assay (MIC); assay type: cell-based
Protocol: as §1
(§5) All microbial strains were maintained at ™80 °C for long-term storage and subcultured on Mueller-Hinton (MH) agar (Biolife, Italy) prior to broth microdilution experiments. The MH plates were stored at +4 °C for no longer than one month.
as §3
as §4, with “To each well, 50 µL of mid-exponentially grown inoculum containing 10^5 CFU/mL in Mueller-Hinton broth was added and incubated at 37 °C for 18 hours.” left out

[5] = test system: Bacillus cereus ATCC14579; test: Broth microdilution assay (MIC); assay type: cell-based
Protocol: as §1, §5, §3
as §4, with “To each well, 50 µL of mid-exponentially grown inoculum containing 10^5 CFU/mL in Mueller-Hinton broth was added and incubated at 37 °C for 18 hours.” left out

[6] = test system: Enterococcus faecalis ATCC29212; test: Broth microdilution assay (MIC); assay type: cell-based
Protocol: as §1, §5, §3
as §4, with “To each well, 50 µL of mid-exponentially grown inoculum containing 10^5 CFU/mL in Mueller-Hinton broth was added and incubated at 37 °C for 18 hours.” left out

[7] = test system: Escherichia coli ATCC25922; test: Broth microdilution assay (MIC); assay type: cell-based
Protocol: as §1, §5, §3
as §4, with “To each well, 50 µL of mid-exponentially grown inoculum containing 10^5 CFU/mL in Mueller-Hinton broth was added and incubated at 37 °C for 18 hours.” left out

[8] = test system: Staphylococcus aureus ATCC25923; test: Broth microdilution assay (MIC); assay type: cell-based; details: Staphylococcus aureus
Protocol: as §1, §5, §3
as §4, with “To each well, 50 µL of mid-exponentially grown inoculum containing 10^5 CFU/mL in Mueller-Hinton broth was added and incubated at 37 °C for 18 hours.” left out

[9] = test system: Listeria monocytogenes ATCC7644; test: Broth microdilution assay (MIC); assay type: cell-based
Protocol: as §1, §5, §3
as §4, with “To each well, 50 µL of mid-exponentially grown inoculum containing 10^5 CFU/mL in Mueller-Hinton broth was added and incubated at 37 °C for 18 hours.” left out

[10] = 18 h, P. aeruginosa ATCC27853, read-out: MIC
[11] = 18 h, B. cereus ATCC14579, read-out: MIC
[12] = 18 h, E. faecalis ATCC29212, read-out: MIC
[13] = ATCC25922, 18 h, E. coli ATCC25922, read-out: MIC
[14] = S. aureus ATCC25923, 18 h, 37 °C, read-out: MIC
[15] = 18 h, L. monocytogenes ATCC7644, read-out: MIC
[16] = ATCC25922, 18 h, E. coli ATCC25922

| SMILES | MIC ([2]; MRSA, 18 h) | MIC ([3]; 18 h) | MIC [4, 10] | MIC [5, 11] | MIC [6, 12] | MIC [7, 13] | MIC [8, 14] | MIC [9, 15] | MIC ([4]; ATCC27853, 18 h) | MIC ([5]; ATCC14579, 18 h) | MIC ([6]; ATCC29212, 18 h) | MIC ([8]; ATCC25923, 18 h) | MIC ([9]; ATCC7644, 18 h) | melting point | other results |
| --- | --- | --- | --- | --- | --- | --- | --- | --- | --- | --- | --- | --- | --- | --- | --- |
| CCCCCCCCCCCC[N+](C)(C)Cc1ccccc1.[Br-] [BAB, benzalkonium bromide, reference compound] |  |  |  |  |  |  |  |  |  |  |  |  |  |  | Number of local lesions (LLN ± SD) [1]: 0.2 and 0.2±0.2; Percentage of inhibition of local lesions [1]: 98.7% |
| Cc1ccc(C[n+]2ccc(C=NO)cc2)cc1 [Py-BnCH3] | 5000 µg/mL | 630 µg/mL | > 5000 µg/mL and > 16300 µM | 5000 µg/mL | 2500 µg/mL and 8140 µM | 5000 µg/mL and 16300 µM | 2500 µg/mL | 1250 µg/mL and 4070 µM |  |  |  |  |  |  |  |
| ON=Cc1cc[n+](Cc2ccc(C(F)(F)F)cc2)cc1 [Py-BnCF3, N-(p-(trifluoromethyl))benzyl-4-hydroxyiminomethylpyridinium bromide] | 1250 µg/mL | 1250 µg/mL and 3460 µM | 5000 µg/mL and 13800 µM | 1250 µg/mL | 2500 µg/mL and 6920 µM | 2500 µg/mL and 6920 µM | 630 µg/mL | 2500 µg/mL and 6920 µM |  |  |  |  |  |  |  |
| ON=Cc1cc[n+](Cc2ccc(Cl)cc2)cc1 [Py-BnCl] | 2500 µg/mL | 2500 µg/mL and 7630 µM | 5000 µg/mL and 15300 µM | 5000 µg/mL | 5000 µg/mL and 15300 µM | 310 µg/mL | 1250 µg/mL | 2500 µg/mL and 7630 µM |  |  |  |  |  |  |  |
| O=[N+]([O-])c1ccc(C[n+]2ccc(C=NO)cc2)cc1 [Py-BnNO2] | > 5000 µg/mL | 5000 µg/mL and 14800 µM |  |  |  |  |  |  | > 5000 µg/mL and > 14800 µM | > 5000 µg/mL | > 5000 µg/mL and > 14800 µM | 5000 µg/mL | > 5000 µg/mL and > 14800 µM |  | MIC ([7]; ATCC25922, 18 h): 2500 µg/mL and 7390 µM |
| ON=Cc1cc[n+](Cc2ccc(Br)cc2)cc1 [Py-BnBr] | 1250 µg/mL | 630 µg/mL | 5000 µg/mL and 13400 µM | 2500 µg/mL | 2500 µg/mL and 6720 µM | 160 µg/mL | 1250 µg/mL | 2500 µg/mL and 6720 µM |  |  |  |  |  |  |  |
| ON=Cc1cc[n+](CCCCCCCCCCBr)cc1.[Br-] [Py-C10Br, N-(10-bromodecyl)-4-hydroxyiminomethylpyridinium bromide] | 310 µg/mL | 5000 µg/mL and 11800 µM |  |  |  |  |  |  | > 5000 µg/mL and > 11800 µM | 630 µg/mL | 5000 µg/mL and 11800 µM | 630 µg/mL | 5000 µg/mL and 11800 µM | 103 to 105 °C | MIC [7, 16]: 630 µg/mL and 1490 µM |
| ON=Cc1cc[n+](Cc2ccc(F)cc2)cc1.[Br-] [Py-BnF, N-p-fluorobenzyl-4-hydroxyiminomethylpyridinium bromide] | > 5000 µg/mL | > 5000 µg/mL and > 16100 µM |  |  |  |  |  |  | > 5000 µg/mL and > 16100 µM | > 5000 µg/mL | > 5000 µg/mL and > 16100 µM | 5000 µg/mL | > 5000 µg/mL and > 16100 µM | 181 to 183 °C | MIC [7, 16]: 630 µg/mL |
| ON=Cc1cc[n+](Cc2ccccc2)cc1 [Py-Bn] | > 5000 µg/mL | > 5000 µg/mL and > 17000 µM |  |  |  |  |  |  | > 5000 µg/mL and > 17000 µM | > 5000 µg/mL | > 5000 µg/mL and > 17000 µM | > 5000 µg/mL | > 5000 µg/mL and > 17000 µM |  | MIC ([7]; ATCC25922, 18 h): 1250 µg/mL and 4260 µM |
| ON=Cc1cc[n+](Cc2ccc(C(F)(F)F)cc2)cc1 (as salt: bromide) [Py-BnCF3, N-(p-(trifluoromethyl))benzyl-4-hydroxyiminomethylpyridinium bromide] |  |  |  |  |  |  |  |  |  |  |  |  |  | 186 to 187 °C |  |
| ON=Cc1cc[n+](Cc2ccc(OC(F)(F)F)cc2)cc1 (as salt: bromide) [Py-BnOCF3, N-(p-trifluoromethoxy)benzyl-4-hydroxyiminomethylpyridinium bromide] |  |  |  |  |  |  |  |  |  |  |  |  |  | 175 to 176 °C |  |
| ON=Cc1cc[n+](Cc2ccc(OC(F)(F)F)cc2)cc1 [Py-BnOCF3, N-(p-trifluoromethoxy)benzyl-4-hydroxyiminomethylpyridinium bromide] | 1250 µg/mL | 2500 µg/mL and 6630 µM | 2500 µg/mL and 6630 µM | 2500 µg/mL | 2500 µg/mL and 6630 µM | 310 µg/mL | 310 µg/mL | 2500 µg/mL and 6630 µM |  |  |  |  |  |  |  |
| ON=Cc1cc[n+](CCCCCCCCCCCCBr)cc1.[Br-] [Py-C12Br, N-(12-bromododecyl)-4-hydroxyiminomethylpyridinium bromide] | 310 µg/mL | 2500 µg/mL and 5550 µM |  |  |  |  |  |  | 2500 µg/mL and 5550 µM | 630 µg/mL | 1250 µg/mL and 2780 µM | 160 µg/mL | 1250 µg/mL and 2780 µM | 109 to 110 °C | Number of local lesions (LLN ± SD) [1]: 6.3±1.6; Percentage of inhibition of local lesions [1]: 57.7%; MIC [7, 16]: 630 µg/mL and 1400 µM |
| CO/N=C(\C(=O)N[C@@H]1C(=O)N2C(C(=O)O)=C(COC(C)=O)CS[C@H]12)c1csc(N)n1 [Cefotaxime, reference compound] |  |  |  |  |  |  |  |  |  |  |  |  |  |  | MIC ([2]; S. aureus clinical/MRSA, read-out: MIC): > 119 µg/mL; MIC ([2]; S. aureus clinical/MRSA, standards, read-out: MIC): > 250 µM; MIC ([3]; standards): 0.1 µg/mL and 0.2 µM; MIC ([4]; P. aeruginosa ATCC27853, standards, read-out: MIC): 59.7 µg/mL and 130 µM; MIC ([5]; B. cereus ATCC14579, standards, read-out: MIC): 3.7 µg/mL and 10 µM; MIC ([6]; E. faecalis ATCC29212, standards, read-out: MIC): 29.8 µg/mL and 60 µM; MIC ([7]; ATCC25922, E. coli ATCC25922, standards, read-out: MIC): 0.2 µg/mL and 0.4 µM; MIC ([8]; S. aureus ATCC25923, standards, read-out: MIC): 3.7 µg/mL and 10 µM; MIC ([9]; L. monocytogenes ATCC7644, standards, read-out: MIC): 3.7 µg/mL and 10 µM |
| ON=Cc1cc[n+](CCCCCCCCBr)cc1.[Br-] [Py-C8Br, N-(8-bromooctyl)-4-hydroxyiminomethylpyridinium bromide] | 2500 µg/mL | > 5000 µg/mL and > 12700 µM |  |  |  |  |  |  | > 5000 µg/mL and > 12700 µM | 2500 µg/mL | 2500 µg/mL and 6340 µM | 5000 µg/mL | 1250 µg/mL and 3170 µM | 100 to 101 °C | MIC [7, 16]: 1250 µg/mL and 3170 µM |
